In patent US20250160366A1, “MEANS AND METHODS FOR MODULATING SECONDARY METABOLITE IN AN ANIMAL” (DSM IP Assets B.V., priority 2022, published 2025):

Legend:
[1] = OP at 1000 mg/kg feed, positive control 30 g GABA per ton of feed
[2] = in mice; cited from earlier work
[3] = GABA supplementation at 30 g/MT; Li et al. 2015, Bi et al. 2020; cited from earlier work

NCCCC(=O)O [GABA, Gamma-aminobutyric acid]
fold change (compared to day 0) of plasma COR as stress indicator [1]: 0.70
fold change (compared to day 0) of plasma NPY as stress-resistance indicator [1]: 0.51
plasma GABA fold change compared to day 0 ([1]; day 12): 1.07
half-life of GABA in the body [2]: less than 17 min
biting incidences [3]: lower
growth performance [3]: increase
stress-related parameters [3]: improve
